Reference: ChEMBL document CHEMBL3885861, “Open TG-GATES”

Species: Rattus norvegicus
Assay: Open TG-GATES - Regimen: Daily Repeat
Type: toxicity, organism-based, Sprague-Dawley
Parameters: regimen Daily Repeat, gender Male, age 6 weeks
Details: in vivo, po, 300 mg/kg, route gavage, dose level High; for APTT / Bas / Eos / Fbg / Hb / Ht / Lym / MCH / MCHC / MCV / Mono / Neu / PT / Plat / RBC / Ret / WBC: tissue Blood; for KIDNEY_L / KIDNEY_R / KIDNEY_TOTAL: tissue Kidney; for LIVER: tissue Liver; for A/G / ALP / ALT / AST / BUN / CRE / Ca / Cl / DBIL / GLC / IP / K / LDH / Na / PL / RALB / TBIL / TC / TG / TP / gamma-GTP: tissue Plasma

CCCNC(=O)NS(=O)(=O)c1ccc(Cl)cc1 [CHLORPROPAMIDE]
TERMINAL_BW (72 h, time 3 day): 191.6 g
APTT (72 h, time 3 day): 18.9 s
Bas (72 h, time 3 day): 0.2%
Eos (72 h, time 3 day): 1%
Fbg (72 h, time 3 day): 316.6 mg/dL
Hb (72 h, time 3 day): 13.3 g/dL
Ht (72 h, time 3 day): 39.6%
Lym (72 h, time 3 day): 80.6%
MCH (72 h, time 3 day): 20.6 pg
MCHC (72 h, time 3 day): 33.5%
MCV (72 h, time 3 day): 61.6 fL
Mono (72 h, time 3 day): 1.8%
Neu (72 h, time 3 day): 15.2%
PT (72 h, time 3 day): 16.2 s
Plat (72 h, time 3 day): 110.6 x10_4/uL
RBC (72 h, time 3 day): 645.4 x10_4/ul
Ret (72 h, time 3 day): 3.8%
WBC (72 h, time 3 day): 88.9 x10_2/uL
KIDNEY_L (72 h, time 3 day): 0.8 g
KIDNEY_R (72 h, time 3 day): 0.8 g
KIDNEY_TOTAL (72 h, time 3 day): 1.7 g
LIVER (72 h, time 3 day): 8.1 g
A/G (72 h, time 3 day): 0.9
ALP (72 h, time 3 day): 1546.2 IU/L
ALT (72 h, time 3 day): 46 IU/L
AST (72 h, time 3 day): 64.2 IU/L
BUN (72 h, time 3 day): 14.8 mg/dL
CRE (72 h, time 3 day): 0.2 mg/dL
Ca (72 h, time 3 day): 10.6 mg/dL
Cl (72 h, time 3 day): 109.8 meq/L
DBIL (72 h, time 3 day): 0.002 mg/dL
GLC (72 h, time 3 day): 166 mg/dL
IP (72 h, time 3 day): 6.6 mg/dL
K (72 h, time 3 day): 3.5 meq/L
LDH (72 h, time 3 day): 63.2 IU/L
Na (72 h, time 3 day): 142.4 meq/L
PL (72 h, time 3 day): 154.8 mg/dL
RALB (72 h, time 3 day): 2.6 g/dL
TBIL (72 h, time 3 day): 0.02 mg/dL
TC (72 h, time 3 day): 84.2 mg/dL
TG (72 h, time 3 day): 55.6 mg/dL
TP (72 h, time 3 day): 5.7 g/dL
gamma-GTP (72 h, time 3 day): 1.2 IU/L
TERMINAL_BW ([…], time 7 day): 213.5 g
TERMINAL_BW ([…], time 14 day): 232.5 g
TERMINAL_BW ([…], time 28 day): 294.1 g
APTT ([…], time 7 day): 20.1 s
Bas ([…], time 7 day): 0%
Eos ([…], time 7 day): 1%
Fbg ([…], time 7 day): 286.8 mg/dL
Hb ([…], time 7 day): 13.1 g/dL
Ht ([…], time 7 day): 40.1%
Lym ([…], time 7 day): 81%
MCH ([…], time 7 day): 20.3 pg
MCHC ([…], time 7 day): 32.8%
MCV ([…], time 7 day): 62 fL
Mono ([…], time 7 day): 2.6%
Neu ([…], time 7 day): 14.6%
PT ([…], time 7 day): 16.4 s
Plat ([…], time 7 day): 111.5 x10_4/uL
RBC ([…], time 7 day): 647.8 x10_4/ul
Ret ([…], time 7 day): 5.6%
WBC ([…], time 7 day): 95.7 x10_2/uL
APTT ([…], time 14 day): 33.4 s
Bas ([…], time 14 day): 0%
Eos ([…], time 14 day): 0.8%
Fbg ([…], time 14 day): 283.2 mg/dL
Hb ([…], time 14 day): 14.4 g/dL
Ht ([…], time 14 day): 43.1%
Lym ([…], time 14 day): 83.6%
MCH ([…], time 14 day): 20.3 pg
MCHC ([…], time 14 day): 33.5%
MCV ([…], time 14 day): 60.5 fL
Mono ([…], time 14 day): 2.2%
Neu ([…], time 14 day): 12%
PT ([…], time 14 day): 16.6 s
Plat ([…], time 14 day): 105.9 x10_4/uL
RBC ([…], time 14 day): 712.6 x10_4/ul
Ret ([…], time 14 day): 3.8%
WBC ([…], time 14 day): 79.2 x10_2/uL
APTT ([…], time 28 day): 22.6 s
Bas ([…], time 28 day): 0.2%
Eos ([…], time 28 day): 0.8%
Fbg ([…], time 28 day): 282.6 mg/dL
Hb ([…], time 28 day): 14.5 g/dL
Ht ([…], time 28 day): 44.1%
Lym ([…], time 28 day): 78.2%
MCH ([…], time 28 day): 18.5 pg
MCHC ([…], time 28 day): 32.9%
MCV ([…], time 28 day): 56.1 fL
Mono ([…], time 28 day): 2.8%
Neu ([…], time 28 day): 16.8%
PT ([…], time 28 day): 16.7 s
Plat ([…], time 28 day): 93.9 x10_4/uL
RBC ([…], time 28 day): 786 x10_4/ul
Ret ([…], time 28 day): 2.3%
WBC ([…], time 28 day): 126.5 x10_2/uL
KIDNEY_L ([…], time 7 day): 0.9 g
KIDNEY_R ([…], time 7 day): 0.9 g
KIDNEY_TOTAL ([…], time 7 day): 1.8 g
KIDNEY_L ([…], time 14 day): 1 g
KIDNEY_R ([…], time 14 day): 1 g
KIDNEY_TOTAL ([…], time 14 day): 2.1 g
KIDNEY_L ([…], time 28 day): 1.2 g
KIDNEY_R ([…], time 28 day): 1.2 g
KIDNEY_TOTAL ([…], time 28 day): 2.4 g
LIVER ([…], time 7 day): 9.7 g
LIVER ([…], time 14 day): 11 g
LIVER ([…], time 28 day): 13.2 g
A/G ([…], time 7 day): 0.9
ALP ([…], time 7 day): 1590.8 IU/L
ALT ([…], time 7 day): 48 IU/L
AST ([…], time 7 day): 69.2 IU/L
BUN ([…], time 7 day): 18.6 mg/dL
CRE ([…], time 7 day): 0.2 mg/dL
Ca ([…], time 7 day): 10.9 mg/dL
Cl ([…], time 7 day): 110.8 meq/L
DBIL ([…], time 7 day): 0.004 mg/dL
GLC ([…], time 7 day): 187 mg/dL
IP ([…], time 7 day): 7.6 mg/dL
K ([…], time 7 day): 3.3 meq/L
LDH ([…], time 7 day): 68.4 IU/L
Na ([…], time 7 day): 145.2 meq/L
PL ([…], time 7 day): 165.2 mg/dL
RALB ([…], time 7 day): 2.6 g/dL
TBIL ([…], time 7 day): 0.016 mg/dL
TC ([…], time 7 day): 82.2 mg/dL
TG ([…], time 7 day): 60.2 mg/dL
TP ([…], time 7 day): 5.7 g/dL
gamma-GTP ([…], time 7 day): 1 IU/L
A/G ([…], time 14 day): 0.8
ALP ([…], time 14 day): 1780 IU/L
ALT ([…], time 14 day): 51 IU/L
AST ([…], time 14 day): 72.2 IU/L
BUN ([…], time 14 day): 17.6 mg/dL
CRE ([…], time 14 day): 0.2 mg/dL
Ca ([…], time 14 day): 10.3 mg/dL
Cl ([…], time 14 day): 111.2 meq/L
DBIL ([…], time 14 day): 0.004 mg/dL
GLC ([…], time 14 day): 182.6 mg/dL
IP ([…], time 14 day): 7.8 mg/dL
K ([…], time 14 day): 3.2 meq/L
LDH ([…], time 14 day): 85 IU/L
Na ([…], time 14 day): 145.2 meq/L
PL ([…], time 14 day): 158 mg/dL
RALB ([…], time 14 day): 2.7 g/dL
TBIL ([…], time 14 day): 0.012 mg/dL
TC ([…], time 14 day): 75 mg/dL
TG ([…], time 14 day): 72.4 mg/dL
TP ([…], time 14 day): 5.9 g/dL
gamma-GTP ([…], time 14 day): 1 IU/L
A/G ([…], time 28 day): 0.8
ALP ([…], time 28 day): 1231.8 IU/L
ALT ([…], time 28 day): 47.8 IU/L
AST ([…], time 28 day): 70 IU/L
BUN ([…], time 28 day): 20 mg/dL
CRE ([…], time 28 day): 0.2 mg/dL
Ca ([…], time 28 day): 10.5 mg/dL
Cl ([…], time 28 day): 110.4 meq/L
DBIL ([…], time 28 day): 0.002 mg/dL
GLC ([…], time 28 day): 196.4 mg/dL
IP ([…], time 28 day): 6.7 mg/dL
K ([…], time 28 day): 3 meq/L
LDH ([…], time 28 day): 67.4 IU/L
Na ([…], time 28 day): 146.4 meq/L
PL ([…], time 28 day): 148.6 mg/dL
RALB ([…], time 28 day): 2.7 g/dL
TBIL ([…], time 28 day): 0.008 mg/dL
TC ([…], time 28 day): 65.6 mg/dL
TG ([…], time 28 day): 89.4 mg/dL
TP ([…], time 28 day): 6 g/dL
gamma-GTP ([…], time 28 day): 1.2 IU/L
